Measured values: ChEMBL document CHEMBL5104180, “Design, Synthesis, and Evaluation of New Sugar-Substituted Imidazole Derivatives as Selective c-MYC Transcription Repressors Targeting the Promoter G-Quadruplex” (J Med Chem, 2022)
Active and inactive are the calls of the source. The rule behind the calls is not given here.

Assays:
Quadruplex DNA [1] = experiment: Stabilization of c-MYC G4 quadruplex DNA Pu22 (unknown origin) assessed as change in melting temperature at 2 uM by CD spectroscopy; type: nucleic-acid assay
Quadruplex DNA [2] = experiment: Binding affinity to c-MYC G4- quadruplex DNA Pu22 (unknown origin) assessed as binding constant by SPR analysis; type: nucleic-acid assay
[3] = Binding affinity to G-rich KRAS DNA (unknown origin) assessed as binding constant by SPR analysis
[4] = Binding affinity to G-rich HRAS DNA (unknown origin) assessed as binding constant by SPR analysis
[5] = Binding affinity to G-rich NRAS RNA (unknown origin) assessed as binding constant by SPR analysis
[6] = Binding affinity to human G-rich Htg22 DNA assessed as binding constant by SPR analysis
[7] = Binding affinity to Hairpin DNA (unknown origin) assessed as binding constant by SPR analysis
Quadruplex DNA [8] = experiment: Binding affinity to c-MYC G4 quadruplex DNA Pu22 (unknown origin) assessed as binding constant by SPR analysis; type: nucleic-acid assay
RNA = experiment: Binding affinity to NRAS RNA mutant (unknown origin) assessed as binding constant by SPR analysis
HepG2 [9] = experiment: Cytotoxicity against human HepG2 cells assessed as reduction in cell viability measured after 48 hrs by MTT assay; type: functional, cell-based; settings: HepG2, 48 h
MDA-MB-231 [10] = experiment: Cytotoxicity against human MDA-MB-231 cells assessed as reduction in cell viability measured after 48 hrs by MTT assay; type: functional, cell-based; settings: MDA-MB-231, 48 h
[11] = Cytotoxicity against human HBL-100 cells assessed as reduction in cell viability measured after 48 hrs by MTT assay; type: toxicity, cell-based
Quadruplex DNA [12] = experiment: Inhibition of c-MYC G4 quadruplex DNA in HEK293T cells co-transfected with Renilla and firefly luciferase assessed as decrease in relative luciferase at 2.5 to 5 uM measured after 24 hrs by dual luciferase reporter assay; type: cell-based; settings: Homo sapiens, dose 2.5-5 µM
Quadruplex DNA [13] = experiment: Inhibition of c-MYC G4 quadruplex DNA in HEK293T cells co-transfected with Renilla and firefly luciferase assessed as decrease in relative luciferase measured after 24 hrs by dual luciferase reporter assay; type: cell-based; settings: Homo sapiens
Quadruplex DNA [14] = experiment: Inhibition of c-MYC G4 quadruplex DNA mutant in HEK293T cells co-transfected with Renilla and firefly luciferase assessed as decrease in relative luciferase at 2.5 to 5 uM measured after 24 hrs by dual luciferase reporter assay; type: cell-based; settings: Homo sapiens, dose 2.5-5 µM
MDA-MB-231 [15] = experiment: Downregulation of c-MYC mRNA level in human MDA-MB-231 cells measured after 24 hrs by RT-PCR analysis; type: functional, cell-based
MDA-MB-231 [16] = experiment: Downregulation of c-MYC expression in human MDA-MB-231 cells measured after 48 hrs by western blot analysis; type: functional, cell-based
MDA-MB-231 [17] = experiment: Downregulation of VEGF expression in human MDA-MB-231 cells measured after 48 hrs by western blot analysis; type: functional, cell-based
[18] = tested on: NM23-H2/c-MYC G4 quadruplex DNA; experiment: Disruption of NM23-H2/c-MYC G4 quadruplex DNA (unknown origin) interaction incubated for 1 hrs by ELISA; type: protein assay
[19] = tested on: BLM/c-MYC G4 quadruplex DNA; experiment: Disruption of BLM/c-MYC G4 quadruplex DNA (unknown origin) interaction incubated for 1 hrs by ELISA; type: protein assay
[20] = tested on: DHX36/c-MYC G4 quadruplex DNA; experiment: Disruption of DHX36/c-MYC G4 quadruplex DNA (unknown origin) interaction incubated for 1 hrs by ELISA; type: protein assay
MDA-MB-231 [21] = experiment: Cytotoxicity against human MDA-MB-231 cells measured after 48 hrs; type: functional, cell-based
MCF7 = experiment: Cytotoxicity against human MCF7 cells measured after 48 hrs; type: functional, cell-based
HepG2 [22] = experiment: Cytotoxicity against human HepG2 cells measured after 48 hrs; type: functional, cell-based
SiHa = experiment: Cytotoxicity against human SiHa cells measured after 48 hrs; type: functional, cell-based
MDA-MB-231 [23] = experiment: Antitumor activity against human MDA-MB-231 cells xenografted in BALB/c-nu/nu mouse assessed as relative increment ratio at 2.5 mg/kg, ip measured for 24 days; type: functional; settings: time 24 day
MDA-MB-231 [24] = experiment: Antitumor activity against human MDA-MB-231 cells xenografted in BALB/c-nu/nu mouse assessed as tumor growth inhibition at 2.5 mg/kg, ip measured for 24 days; type: functional; settings: MDA-MB-231, 576 h, time 24 day, read-out: TGI

| SMILES | ΔTm (Quadruplex DNA [1]) [°C] | Kd (Quadruplex DNA [2]) [µM] | Kd [3] [µM] | Kd [4] [µM] | Kd [5] [µM] | Kd [6] [µM] | Kd [7] [µM] | Kd (Quadruplex DNA [8]) [µM] | Kd (RNA) [µM] | IC50 (HepG2 [9]) [µM] | IC50 (MDA-MB-231 [10]) [µM] | also measured |
| --- | --- | --- | --- | --- | --- | --- | --- | --- | --- | --- | --- | --- |
| CCn1c2ccccc2c2cc(-c3nc(-c4ccc(N5CCN(C)CC5)cc4)c(-c4ccc(N5CCN(Cc6cn(CCOCCO[C@@H]7O[C@H](COC(C)=O)[C@@H](OC(C)=O)[C@H](OC(C)=O)[C@H]7OC(C)=O)nn6)CC5)cc4)[nH]3)ccc21 (single isomer, unassigned) | 17.8 | 1 | 17.2 | 8.2 | > 20 | > 20 | > 20 | > 20 | > 20 | > 32 | > 32 |  |
| COc1ccc(-n2c(-c3ccc4c(c3)c3ccccc3n4Cc3cn(CCOCCO[C@@H]4O[C@H](COC(C)=O)[C@@H](OC(C)=O)[C@H](OC(C)=O)[C@H]4OC(C)=O)nn3)nc(-c3ccc(N4CCN(C)CC4)cc3)c2-c2ccc(N3CCN(C)CC3)cc2)cc1 | 15.9 | 3 | > 20 | > 20 | > 20 | > 20 | > 20 | > 20 | > 20 | 11 | 6.4 | IC50 at 48 h [11]: 19.3 µM |
| CCn1c2ccccc2c2cc(-c3nc(-c4ccc(N5CCN(C)CC5)cc4)c(-c4ccc(N5CCN(C)CC5)cc4)n3-c3ccc(OCCOCCO[C@@H]4O[C@H](CO)[C@@H](O)[C@H](O)[C@H]4O)cc3)ccc21 (single isomer, unassigned) | 18 | 1.6 | > 20 | > 20 | > 20 | > 20 | > 20 | > 20 | > 20 | > 32 | > 32 |  |
| Cc1sc2c(c1C)C(c1ccc(Cl)cc1)=NC(CC(=O)OC(C)(C)C)c1nnc(C)n1-2 (configuration not stated) |  |  |  |  |  |  |  |  |  |  |  | inhibition (Quadruplex DNA [12]): Active; Activity (Quadruplex DNA [13]): Active; Activity (Quadruplex DNA [14]): Active; Activity (MDA-MB-231 [15]): Active; Activity (MDA-MB-231 [16]): Active; Activity (MDA-MB-231 [17]): Active |
| CCn1c2ccccc2c2cc(-c3nc(-c4ccc(N5CCN(C)CC5)cc4)c(-c4ccc(N5CCN(C)CC5)cc4)n3-c3ccc(OCCOCCO[C@@H]4O[C@H](CO)[C@H](O)[C@H](O)[C@H]4O)cc3)ccc21 (single isomer, unassigned) | 16.2 | 2 | 18.2 | 14.4 | 16.4 | > 20 | > 20 | > 20 | > 20 | > 32 | > 32 |  |
| COc1ccc(-n2c(-c3ccc4c(c3)c3ccccc3n4Cc3cn(CCOCCO[C@@H]4O[C@H](CO)[C@@H](O)[C@H](O)[C@H]4O)nn3)nc(-c3ccc(N4CCN(C)CC4)cc3)c2-c2ccc(N3CCN(C)CC3)cc2)cc1 (single isomer, unassigned) | 17.7 | 2.2 | 17.8 | 15.5 | 19.2 | > 20 | > 20 | > 20 | > 20 | > 32 | > 32 |  |
| CCn1c2ccccc2c2cc(-c3nc(-c4ccc(N5CCN(C)CC5)cc4)c(-c4ccc(N5CCN(C)CC5)cc4)n3-c3ccc(OCCCOC4(C)O[C@H]5O[C@H](COC(C)=O)[C@@H](OC(C)=O)[C@H](OC(C)=O)[C@H]5O4)cc3)ccc21 (single isomer, unassigned) | 16 | 4.1 | > 20 | > 20 | > 20 | > 20 | > 20 | > 20 | > 20 | 7.8 | 3.6 | IC50 at 48 h [11]: 4.4 µM |
| CCn1c2ccccc2c2cc(-c3nc(-c4ccc(N5CCN(C)CC5)cc4)c(-c4ccc(N5CCN(C)CC5)cc4)n3-c3ccc(OCCCO[C@@H]4O[C@H](CO)[C@H](O)[C@H](O)[C@H]4O)cc3)ccc21 (single isomer, unassigned) | 16.9 | 1.4 | > 20 | 16.6 | > 20 | > 20 | > 20 | > 20 | > 20 | > 32 | > 32 |  |
| CCn1c2ccccc2c2cc(-c3nc(-c4ccc(N5CCN(C)CC5)cc4)c(-c4ccc(N5CCN(C)CC5)cc4)n3-c3ccc(OCCOCCO)cc3)ccc21 | 20.8 | 2.6 | 8.2 | 5.9 | 15.8 | > 20 | > 20 | > 20 | > 20 |  |  | IC50 [18]: 1.1 µM; IC50 [19]: 3.9 µM; IC50 [20]: 8.2 µM |
| CCn1c2ccccc2c2cc(-c3nc(-c4ccc(N5CCN(C)CC5)cc4)c(-c4ccc(N5CCN(C)CC5)cc4)n3-c3ccc(OCCOCCOC4(C)O[C@H]5O[C@H](COC(C)=O)[C@@H](OC(C)=O)[C@H](OC(C)=O)[C@H]5O4)cc3)ccc21 (single isomer, unassigned) | 22.1 | 1.8 | 12.7 | 13.9 | > 20 | > 20 | > 20 | > 20 | > 20 | 3 | 2.9 | IC50 at 48 h [11]: 77.8 µM; IC50 [18]: 3.7 µM; IC50 [19]: 6.8 µM; IC50 [20]: 15.9 µM |
| CCn1c2ccccc2c2cc(-c3nc(-c4ccc(N5CCN(C)CC5)cc4)c(-c4ccc(N5CCN(C)CC5)cc4)n3-c3ccc(OCCOCCO[C@@H]4O[C@H](CO)[C@@H](O)[C@H](O)[C@H]4NC(=O)C(F)(F)F)cc3)ccc21 (single isomer, unassigned) | 16.3 | 4.1 | 17.9 | 19.9 | 16.1 | > 20 | > 20 | > 20 | > 20 | > 32 | > 32 |  |
| CCn1c2ccccc2c2cc(-c3nc(-c4ccc(N5CCN(C)CC5)cc4)c(-c4ccc(N5CCN(C)CC5)cc4)n3-c3ccc(O[C@@H]4O[C@H](CO)[C@@H](O)[C@H](O)[C@H]4O)cc3)ccc21 | 15.5 | 1.8 | 12.5 | 6.8 | 16.9 | > 20 | > 20 | > 20 | > 20 |  |  |  |
| CCn1c2ccccc2c2cc(-c3nc(-c4ccc(N5CCN(C)CC5)cc4)c(-c4ccc(N5CCN(C)CC5)cc4)n3-c3ccc(OC)cc3)ccc21 | 12.5 | 7 | 15.1 | 15.1 | > 20 | > 20 | > 20 | > 20 | > 20 | 6.1 | 5.1 | IC50 at 48 h [11]: 11.2 µM; IC50 [18]: 25.8 µM; IC50 [19]: 14.6 µM; IC50 [20]: 5 µM; Activity (MDA-MB-231 [21]): Active; inhibition (Quadruplex DNA [12]): Active; Activity (Quadruplex DNA [13]): Active; Activity (MDA-MB-231 [15]): Active; Activity (MDA-MB-231 [16]): Active; Activity (MCF7): Active; Activity (HepG2 [22]): Active; Activity (SiHa): Active; Activity (MDA-MB-231 [23]): 72.3%; inhibition in vivo at 2.5 mg/kg (MDA-MB-231 [24]): 55.5% |
| CCn1c2ccccc2c2cc(-c3nc(-c4ccc(N5CCN(C)CC5)cc4)c(-c4ccc(N5CCN(C)CC5)cc4)n3-c3ccc(OCCCO[C@@H]4O[C@H](CO)[C@@H](O)[C@H](O)[C@H]4O)cc3)ccc21 (single isomer, unassigned) | 16.7 | 1.8 | 15 | 14.3 | > 20 | > 20 | > 20 | > 20 | > 20 | > 32 | > 32 |  |
| CCn1c2ccccc2c2cc(-c3nc(-c4ccc(N5CCN(C)CC5)cc4)c(-c4ccc(N5CCN(Cc6cn(CCOCCO[C@@H]7O[C@H](CO)[C@@H](O)[C@H](O)[C@H]7O)nn6)CC5)cc4)[nH]3)ccc21 (single isomer, unassigned) | 19.2 | 1.7 | 4.8 | 2.5 | 11.7 | > 20 | > 20 | > 20 | > 20 |  |  |  |
